For data set [1], the system named is Caco-2 cells. The protocol:
The transport buffer solution was HBSS (Hanks' balanced salt solution) and 10 mM HEPES [N-(2-hydroxyethyl)piperazine-N′-(2-ethanesulfonic acid)], pH 7.40±0.05; Caco-2 cells were purchased from ATCC.
Caco-2 cells were seeded at 1×10^5 cells/cm^2 in polyethylene terephthalate (PET) 96-well BD insert plates, and the medium was refreshed every 4-5 days until day 21-28 to form a confluent monolayer. Test compounds were tested in a two-way format at 2 μM in duplicate. Digoxin was added at 10 μM in the two-way format, and nadolol and metoprolol were added at 2 μM in the two-way format. Final DMSO concentration was adjusted to less than 1%. The plates were incubated in a CO2 incubator at 37±1° C. for 2 h and at 5% CO2 and saturated humidity without shaking. All samples were mixed with acetonitrile containing an internal standard, centrifuged at 4000 rpm for 10 min. 100 microliters of supernatant was diluted with 100 microliters of distilled water for LC/MS/MS analysis. By LC/MS/MS analysis, the concentrations of the test compounds and the reference compound in the initial test compound solution, the test compound solution and the test article solution using the peak area ratio of the analyte to the internal standard. After the transport test, the integrity of the Caco-2 cell monolayer was determined by fluorescein yellow exclusion reaction, and the apparent permeability coefficient and efflux ratio were calculated.

Data set [2] addresses JAK3(h) (Homo sapiens (Human), UniProt P52333). Briefly: In vitro activity assay of JAK3 kinase (radiometric [γ-33P]-ATP). It is filed as biochemical. The settings on record: recombinant human JAK3. The method, then:
(§1) Recombinant human JAK1, JAK2, JAK3 and TYK2 […], and main instruments and reagents were provided by Eurofins, UK
(§2) JAK2, JAK3 and TYK2 dilutions: 20 mM 3-(N-morpholino)propanesulfonic acid (MOPS), 1 mM EDTA, 0.01% Brij-35.5% glycerol, 0.1% β-mercaptoethanol, 1 mg/mL BSA; JAK1 dilution: 20 mM TRIS, 0.2 mM EDTA, 0.1% β-mercaptoethanol, 0.01% Brij-35.5% glycerol. All compounds were prepared in 100% DMSO and brought to 50 fold the final assay concentration. The test compounds were serially 3-fold diluted to 9 concentrations from 10 μM to 0.001 μM with DMSO content in the assay reaction being 2%. Working stock solutions of the compounds were added to the assay wells as the first component of the reaction, and then the remaining components were added according to the assay protocol detailed below.
JAK3(h) was incubated with 8 mM MOPS pH 7.0, 0.2 mM EDTA, 500 μM GGEEEEYFELVKKKK, 10 mM magnesium acetate and [γ-^33P]-ATP (activity and concentration were determined as required). The reaction was started by adding the Mg/ATP mixture and terminated by adding 0.5% phosphoric acid after 40 min of incubation at room temperature. 10 μL of the reaction mixture was then added dropwise on a P30 filter pad and washed three times with 0.425% phosphoric acid and once with methanol within 4 minutes, dried and analyzed using a scintillation counter.

For data set [3], the target named is JAK1(h) (Homo sapiens (Human), UniProt P23458). Briefly: In vitro activity assay of JAK1 kinase (radiometric [γ-33P]-ATP). It counts as biochemical. The settings on record: recombinant human JAK1. The protocol:
as §1, §2
JAK1(h) was incubated with 20 mM Tris/HCl pH 7.5, 0.2 mM EDTA, 500 μM MGEEPLYWSFPAKKK, 10 mM magnesium acetate and [γ-^33P]-ATP (activity and concentration were determined as required). The reaction was started by adding the Mg/ATP mixture and terminated by adding 0.5% phosphoric acid after 40 min of incubation at room temperature. 10 μL of the reaction mixture was then added dropwise on a P30 filter pad and washed three times with 0.425% phosphoric acid and once with methanol within 4 minutes, dried and analyzed using a scintillation counter.

Data set [4] has as its target JAK2(h) (Homo sapiens (Human), UniProt O60674). Put plainly: In vitro activity assay of JAK2 kinase (radiometric [γ-33P]-ATP). It is filed as biochemical. As to conditions: recombinant human JAK2. The method, then:
as §1, §2
JAK2(h) was incubated with 8 mM MOPS pH 7.0, 0.2 mM EDTA, 100 μM […], 10 mM magnesium acetate and [γ-^33P]-ATP (activity and concentration were determined as required). The reaction was started by adding the Mg/ATP mixture and terminated by adding 0.5% phosphoric acid after 40 min of incubation at room temperature. 10 μL of the reaction mixture was then added dropwise on a P30 filter pad and washed three times with 0.425% phosphoric acid and once with methanol within 4 minutes, dried and analyzed using a scintillation counter.

Data set [5] has as its target TYK2(h) (Homo sapiens (Human), UniProt P29597). Put plainly: In vitro activity assay of TYK2 kinase (radiometric [γ-33P]-ATP). It is filed as biochemical. The settings on record: recombinant human TYK2. The method, then:
as §1, §2
TYK2(h) was incubated with 8 mM MOPS pH 7.0, 0.2 mM EDTA, 250 μM GGMEDIYFEFMGGKKK, 10 mM magnesium acetate and [γ-^33P]-ATP (activity and concentration were determined as required). The reaction was started by adding the Mg/ATP mixture and terminated by adding 0.5% phosphoric acid after 40 min of incubation at room temperature. 10 μL of the reaction mixture was then added dropwise on a P30 filter pad and washed three times with 0.425% phosphoric acid and once with methanol within 4 minutes, dried and analyzed using a scintillation counter.

In data set [6] the test system is rat adjuvant-induced arthritis model. Put plainly: Adjuvant-induced arthritis (AIA) in rats, in-vivo pharmacodynamic study. The settings on record: for Inhibition on area under the clinical score curve, AUC (%): oral, 2 times daily, female Lewis rats; for Mean clinical arthritis score: 10 mg/kg group. Also on record: species or system Lewis rats. The method, then:
The compounds disclosed herein were tested for their efficacy on arthritis using a rat adjuvant-induced arthritis model. Female, 160- and 180-gram Lewis rats were anesthetized with isoflurane and injected subcutaneously with 0.1 mL of Mycobacterium tuberculosis suspension in the left hind paw. The animals were grouped and administered with the compounds 13 days after modeling. The test compound 1-13 was dissolved in a mixed vehicle of [5% DMSO, 95% (12% SBE-β-CD), 0.5% MC]. The female Lewis rats were orally administered 2 times daily (8 animals in each group).

Data set [7] can be described thus: Pharmacokinetic (PK) study in mice. It is filed as in vivo, mice (C57BL/6). The settings on record: male C57BL/6 mice. The method, then: Clear solutions obtained by dissolving the test compounds were administered to male mice (C57BL/6) or rats (SD) by tail vein injection and oral gavage (overnight fasting, 7-8 weeks old). After the administration of the test compounds, plasma was separated from blood collected from the mandibular vein and centrifugation at 0.117, 0.333, 1, 2, 4, 7 and 24 h for the intravenous injection group (1 mg/kg), and at 0.25, 0.5, 1, 2, 4, 8 and 24 h for the oral gavage group (3 mg/kg). The plasma concentration was measured by LC-MS/MS method, and the relevant pharmacokinetic parameters were calculated by WinNonlin™ Version 6.3 pharmacokinetic software using non-compartmental model linear logarithmic trapezoid method.

Setting [8] is: i.v. 1 mg/kg and oral gavage 3 mg/kg groups, route not given.

One may read the IC50 as the point on the concentration scale where inhibition reaches its midpoint. As a reminder, the Cmax is the highest concentration seen after dosing.

JAK3(h), sequence (P52333 whole entry): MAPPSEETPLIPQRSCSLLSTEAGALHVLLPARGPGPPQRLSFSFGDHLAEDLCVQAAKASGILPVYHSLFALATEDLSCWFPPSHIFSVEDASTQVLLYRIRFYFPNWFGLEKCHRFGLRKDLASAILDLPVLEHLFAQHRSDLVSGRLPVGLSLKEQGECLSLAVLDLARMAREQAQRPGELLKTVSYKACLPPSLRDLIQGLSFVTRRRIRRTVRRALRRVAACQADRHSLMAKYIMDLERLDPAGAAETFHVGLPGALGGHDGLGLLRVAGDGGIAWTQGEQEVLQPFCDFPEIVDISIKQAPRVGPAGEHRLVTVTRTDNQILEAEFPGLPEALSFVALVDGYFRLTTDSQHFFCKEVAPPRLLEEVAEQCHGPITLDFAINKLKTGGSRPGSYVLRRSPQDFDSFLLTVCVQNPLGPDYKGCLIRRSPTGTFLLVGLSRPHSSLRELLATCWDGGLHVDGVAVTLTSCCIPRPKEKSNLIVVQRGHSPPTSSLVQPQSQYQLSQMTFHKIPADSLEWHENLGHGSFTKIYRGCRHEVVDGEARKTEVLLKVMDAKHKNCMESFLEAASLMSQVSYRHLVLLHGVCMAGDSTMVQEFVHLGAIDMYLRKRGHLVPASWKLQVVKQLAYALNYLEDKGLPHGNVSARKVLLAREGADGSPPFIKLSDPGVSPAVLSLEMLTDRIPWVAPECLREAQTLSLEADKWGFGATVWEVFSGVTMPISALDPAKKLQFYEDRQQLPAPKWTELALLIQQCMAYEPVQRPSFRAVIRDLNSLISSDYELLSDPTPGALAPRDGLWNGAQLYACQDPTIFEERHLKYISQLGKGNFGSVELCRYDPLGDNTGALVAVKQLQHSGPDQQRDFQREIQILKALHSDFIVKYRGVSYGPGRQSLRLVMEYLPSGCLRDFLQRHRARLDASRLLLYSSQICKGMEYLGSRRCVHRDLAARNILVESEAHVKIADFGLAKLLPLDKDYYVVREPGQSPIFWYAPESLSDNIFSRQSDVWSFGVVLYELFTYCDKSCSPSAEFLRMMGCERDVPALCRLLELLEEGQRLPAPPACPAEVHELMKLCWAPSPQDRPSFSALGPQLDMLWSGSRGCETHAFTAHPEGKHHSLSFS
JAK1(h), sequence (P23458 whole entry): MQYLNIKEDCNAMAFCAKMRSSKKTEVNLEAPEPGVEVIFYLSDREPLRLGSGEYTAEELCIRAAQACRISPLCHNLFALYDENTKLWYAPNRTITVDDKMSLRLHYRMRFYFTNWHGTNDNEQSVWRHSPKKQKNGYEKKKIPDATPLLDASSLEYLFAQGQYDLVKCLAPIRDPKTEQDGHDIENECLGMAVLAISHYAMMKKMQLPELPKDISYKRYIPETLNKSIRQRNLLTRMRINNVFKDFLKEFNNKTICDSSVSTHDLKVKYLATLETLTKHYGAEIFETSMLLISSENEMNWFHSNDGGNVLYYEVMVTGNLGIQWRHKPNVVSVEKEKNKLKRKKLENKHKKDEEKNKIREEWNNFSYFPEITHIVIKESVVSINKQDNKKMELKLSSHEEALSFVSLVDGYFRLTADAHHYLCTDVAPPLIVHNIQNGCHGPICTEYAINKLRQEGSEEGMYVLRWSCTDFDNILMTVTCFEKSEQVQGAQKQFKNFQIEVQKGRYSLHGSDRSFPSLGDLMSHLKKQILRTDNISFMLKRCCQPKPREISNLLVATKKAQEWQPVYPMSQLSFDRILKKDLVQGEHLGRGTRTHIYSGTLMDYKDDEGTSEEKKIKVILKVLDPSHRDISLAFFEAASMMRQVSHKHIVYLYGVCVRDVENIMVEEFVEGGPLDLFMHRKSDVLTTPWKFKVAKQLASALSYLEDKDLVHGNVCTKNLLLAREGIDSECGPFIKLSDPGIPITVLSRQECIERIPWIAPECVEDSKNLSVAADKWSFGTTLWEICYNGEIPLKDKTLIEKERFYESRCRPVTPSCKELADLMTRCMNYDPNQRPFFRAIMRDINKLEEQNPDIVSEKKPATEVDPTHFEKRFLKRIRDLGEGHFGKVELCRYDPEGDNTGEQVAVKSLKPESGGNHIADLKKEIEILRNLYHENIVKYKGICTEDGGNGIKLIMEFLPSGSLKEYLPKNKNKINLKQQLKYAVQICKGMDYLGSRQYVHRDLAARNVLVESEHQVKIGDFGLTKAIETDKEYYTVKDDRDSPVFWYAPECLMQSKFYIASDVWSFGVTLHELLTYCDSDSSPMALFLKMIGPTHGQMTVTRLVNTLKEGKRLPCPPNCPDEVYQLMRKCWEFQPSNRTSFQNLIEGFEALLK
TYK2(h), sequence (P29597 whole entry): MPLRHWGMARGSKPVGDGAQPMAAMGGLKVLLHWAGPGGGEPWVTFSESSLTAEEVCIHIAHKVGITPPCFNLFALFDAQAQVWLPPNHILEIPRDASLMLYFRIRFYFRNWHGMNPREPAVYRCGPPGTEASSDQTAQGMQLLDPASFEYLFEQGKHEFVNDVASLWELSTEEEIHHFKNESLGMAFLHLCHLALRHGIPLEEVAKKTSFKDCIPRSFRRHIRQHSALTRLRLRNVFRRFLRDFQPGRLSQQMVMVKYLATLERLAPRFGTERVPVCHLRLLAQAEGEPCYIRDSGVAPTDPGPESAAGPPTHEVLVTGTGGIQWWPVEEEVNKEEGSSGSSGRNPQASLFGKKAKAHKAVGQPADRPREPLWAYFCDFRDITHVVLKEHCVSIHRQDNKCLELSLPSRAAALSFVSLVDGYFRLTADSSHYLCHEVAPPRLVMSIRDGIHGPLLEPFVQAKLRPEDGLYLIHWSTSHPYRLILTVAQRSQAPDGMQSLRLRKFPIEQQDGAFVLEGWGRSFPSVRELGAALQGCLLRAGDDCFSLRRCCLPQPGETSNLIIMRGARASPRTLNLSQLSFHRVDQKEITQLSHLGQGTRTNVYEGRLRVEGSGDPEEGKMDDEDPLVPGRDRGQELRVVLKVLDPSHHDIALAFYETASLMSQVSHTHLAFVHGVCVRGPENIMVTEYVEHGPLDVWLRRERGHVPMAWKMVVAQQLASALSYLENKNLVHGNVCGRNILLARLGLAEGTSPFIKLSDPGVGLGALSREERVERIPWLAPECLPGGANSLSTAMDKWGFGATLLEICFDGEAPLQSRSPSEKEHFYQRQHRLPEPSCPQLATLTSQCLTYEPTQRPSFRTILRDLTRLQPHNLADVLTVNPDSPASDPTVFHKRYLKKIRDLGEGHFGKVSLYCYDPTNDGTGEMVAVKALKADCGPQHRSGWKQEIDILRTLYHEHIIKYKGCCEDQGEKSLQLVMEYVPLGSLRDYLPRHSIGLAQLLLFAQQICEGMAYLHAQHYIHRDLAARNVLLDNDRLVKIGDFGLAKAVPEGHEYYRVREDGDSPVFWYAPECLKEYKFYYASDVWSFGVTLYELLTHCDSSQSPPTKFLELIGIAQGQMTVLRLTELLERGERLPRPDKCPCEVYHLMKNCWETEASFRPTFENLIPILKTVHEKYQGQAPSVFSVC
JAK2(h), sequence (O60674 whole entry): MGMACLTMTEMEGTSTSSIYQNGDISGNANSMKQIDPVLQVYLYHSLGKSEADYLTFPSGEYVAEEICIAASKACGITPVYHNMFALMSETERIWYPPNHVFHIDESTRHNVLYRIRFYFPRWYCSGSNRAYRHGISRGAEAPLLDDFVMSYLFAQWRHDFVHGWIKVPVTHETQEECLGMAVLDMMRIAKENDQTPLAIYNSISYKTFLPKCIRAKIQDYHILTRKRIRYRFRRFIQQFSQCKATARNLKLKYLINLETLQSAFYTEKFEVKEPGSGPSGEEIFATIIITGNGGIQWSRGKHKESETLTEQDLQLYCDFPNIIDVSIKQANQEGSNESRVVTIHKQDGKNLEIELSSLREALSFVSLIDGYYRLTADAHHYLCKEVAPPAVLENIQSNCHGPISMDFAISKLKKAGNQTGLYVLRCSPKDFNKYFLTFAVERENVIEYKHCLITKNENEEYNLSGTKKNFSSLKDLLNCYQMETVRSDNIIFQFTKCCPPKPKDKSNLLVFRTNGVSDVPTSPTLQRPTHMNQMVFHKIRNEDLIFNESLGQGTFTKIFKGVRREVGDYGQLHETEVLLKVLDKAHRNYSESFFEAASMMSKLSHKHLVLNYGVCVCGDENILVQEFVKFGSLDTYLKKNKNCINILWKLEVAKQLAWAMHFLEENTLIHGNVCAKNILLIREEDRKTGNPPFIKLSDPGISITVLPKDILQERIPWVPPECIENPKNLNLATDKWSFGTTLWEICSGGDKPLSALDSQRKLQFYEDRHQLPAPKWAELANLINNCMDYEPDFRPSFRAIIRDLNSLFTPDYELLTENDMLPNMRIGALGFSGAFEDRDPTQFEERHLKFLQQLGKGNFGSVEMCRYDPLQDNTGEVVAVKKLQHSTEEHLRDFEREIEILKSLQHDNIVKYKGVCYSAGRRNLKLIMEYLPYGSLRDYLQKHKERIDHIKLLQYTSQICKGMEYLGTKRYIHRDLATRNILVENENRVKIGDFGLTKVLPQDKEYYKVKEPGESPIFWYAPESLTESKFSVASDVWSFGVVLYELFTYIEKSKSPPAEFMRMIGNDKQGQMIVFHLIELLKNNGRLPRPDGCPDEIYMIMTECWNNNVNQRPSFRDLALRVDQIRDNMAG

On to `CN(c1ncnc2[nH]ccc12)[C@@H]1CCc2cc(C#N)nn2C1` [Compound 1-13], for which the Efflux ratio in data set [1] (Caco-2) was 1.09. Besides, the “Mean apparent permeability coefficient Mean Papp (10^−6 cm/s) A to B” value in data set [1] (Caco-2, pH 7.4) is listed as 28.58 10^−6 cm/s. Further, the “Mean apparent permeability coefficient Mean Papp (10^−6 cm/s) B to A” value in data set [1] (Caco-2, pH 7.4) is 31.18 10^−6 cm/s. The IC50 in data set [2] came to 118 nM; in data set [3], 1 nM; in data set [4], 8 nM; in data set [5], 15 nM. For the same molecule, in data set [6] (3 mg/kg and 10 mg/kg, vs solvent control group, significant difference since day 20), the “Effect on the weight loss trend of animals caused by disease attack” value was “significant relieving effect”. In addition, the “Therapeutic effect (inhibition rate versus vehicle control)” value in data set [6] (3 mg/kg and 10 mg/kg, P<0.0001 versus vehicle control) is on record as “significant therapeutic effect”. In addition, the “Inhibition on area under the clinical score curve, AUC (%)” value in data set [6] (3 mg/kg) turned out to be 49.6%; in data set [6] (10 mg/kg), 60.5%. The “Mean clinical arthritis score” value in data set [6] (day 13 (start of dosing)) is recorded as 6 points; in data set [6] (day 27 (study endpoint)) it was 1.4 points. Moreover, the “Increase in clinical arthritis score” value in data set [6] (dose-dependent, 3 and 10 mg/kg) is “inhibited”. Further, in data set [6] (dose-dependent, 3 and 10 mg/kg), the “Increase in paw volume” value is “inhibited”. Further, the “AUC0-inf” value in data set [7] (setting [8]) amounted to 12.765 µM·h. In data set [7] (setting [8]), the Cmax was 6 µM. Besides, the “T1/2” value in data set [7] (setting [8]) is 1.89 h. Further, the “Bioavailability (%)” value in data set [7] (oral gavage 3 mg/kg vs i.v. 1 mg/kg) is reported as 88.4%.

As to `CC(C)(C)NCC(O)COc1cccc2c1CC(O)C(O)C2` (centres unmarked) [Nadolol, reference compound], in data set [1] (Caco-2, pH 7.4), the “Mean apparent permeability coefficient Mean Papp (10^−6 cm/s) A to B” value is 0.16 10^−6 cm/s.

(Values after patent US12351590B2, “Pyrrolopyrimidine compound and use thereof” (GUANGZHOU JOYO PHARMATECH CO., LTD., priority 2019, dated 2025).)
